Measured values as given in PubChem BioAssay AID2060503 (Molecular Pharmacology Branch, DTP, NCI, 2025).
pIC50: −log10 of the molar value.

Tested on: 817829-284-R-J1-PDC complex spheroids, viability
Test: Anticancer human tumor 817829-284-R-J1-PDC patient-derived colon adenocarcinoma cell line growth inhibition [GQUAD]
Settings: for pIC50: curve of first compound; for viability, T/C: stronger effect = lower value; active = viability on the fitted dose curve at most 10% of control; inactive = the rest
Outline: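 Tumor cells were grown as complex spheroids with HUVEC endothelial cells and mesenchymal stem cells as stroma. G-quadruplex stabilizers were combined with targeted agents over half-log dilutions from near the clinical Cmax, or from 10 microM.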

[1] = second compound 0.0316 µM, first compound 0.0316 µM
[2] = second compound 0.0316 µM, first compound 0.316 µM
[3] = second compound 0.1 µM, first compound 0.0316 µM
[4] = second compound 0.1 µM, first compound 0.316 µM
[5] = second compound 0.316 µM, first compound 0.0316 µM
[6] = second compound 0.316 µM, first compound 0.316 µM
[7] = second compound 1 µM, first compound 0.0316 µM
[8] = second compound 1 µM, first compound 0.316 µM
[9] = second compound 3.16 µM, first compound 0.0316 µM
[10] = second compound 3.16 µM, first compound 0.316 µM
[11] = second compound 10 µM, first compound 0.0316 µM
[12] = second compound 10 µM, first compound 0.316 µM
[13] = second compound 0.0316 µM, first compound 0.000999 µM
[14] = second compound 0.0316 µM, first compound 0.00316 µM
[15] = second compound 0.0316 µM, first compound 0.00999 µM
[16] = second compound 0.0316 µM, first compound 0.0999 µM
[17] = second compound 0.1 µM, first compound 0.000999 µM
[18] = second compound 0.1 µM, first compound 0.00316 µM
[19] = second compound 0.1 µM, first compound 0.00999 µM
[20] = second compound 0.1 µM, first compound 0.0999 µM
[21] = second compound 0.316 µM, first compound 0.000999 µM
[22] = second compound 0.316 µM, first compound 0.00316 µM
[23] = second compound 0.316 µM, first compound 0.00999 µM
[24] = second compound 0.316 µM, first compound 0.0999 µM
[25] = second compound 1 µM, first compound 0.000999 µM
[26] = second compound 1 µM, first compound 0.00316 µM
[27] = second compound 1 µM, first compound 0.00999 µM
[28] = second compound 1 µM, first compound 0.0999 µM
[29] = second compound 3.16 µM, first compound 0.000999 µM
[30] = second compound 3.16 µM, first compound 0.00316 µM
[31] = second compound 3.16 µM, first compound 0.00999 µM
[32] = second compound 3.16 µM, first compound 0.0999 µM
[33] = second compound 10 µM, first compound 0.000999 µM
[34] = second compound 10 µM, first compound 0.00316 µM
[35] = second compound 10 µM, first compound 0.00999 µM
[36] = second compound 10 µM, first compound 0.0999 µM
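Also: spheroids exposed to agents for 7 days before readout.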
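For viability, T/C in this document: percent viability relative to DMSO vehicle control taken as 100%.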

C=CC(=O)N1CCN(c2nc(=O)n(-c3c(C)ccnc3C(C)C)c3nc(-c4c(O)cccc4F)c(F)cc23)C(C)C1 (stereo unspecified) + Cc1cnc(CNC(=O)c2c(=O)c3ccc(N4CCCN(C)CC4)nc3n3c2sc2ccccc23)cn1
5.10: pIC50 (second compound 0.0316 µM)
active: viability, T/C [11] 0.19% | viability, T/C (second compound 10 µM, first compound 0.1 µM) 0.21% | viability, T/C [12] 0.19% | viability, T/C (second compound 10 µM, first compound 1 µM) 0.19% | viability, T/C (second compound 10 µM, first compound 3.16 µM) 0.2% | viability, T/C (second compound 10 µM, first compound 10 µM) 0.19%
> 7.50: pIC50 (second compound 0.1 µM) | pIC50 (second compound 0.316 µM) | pIC50 (second compound 1 µM) | pIC50 (second compound 3.16 µM) | pIC50 (second compound 10 µM)
inactive: viability, T/C [1] 87.4% | viability, T/C (second compound 0.0316 µM, first compound 0.1 µM) 59.1% | viability, T/C [2] 90.8% | viability, T/C (second compound 0.0316 µM, first compound 1 µM) 55.7% | viability, T/C (second compound 0.0316 µM, first compound 3.16 µM) 76.5% | viability, T/C (second compound 0.0316 µM, first compound 10 µM) 44.3% | viability, T/C [3] 34.2% | viability, T/C (second compound 0.1 µM, first compound 0.1 µM) 38.1% | viability, T/C [4] 30.2% | viability, T/C (second compound 0.1 µM, first compound 1 µM) 34.2% | viability, T/C (second compound 0.1 µM, first compound 3.16 µM) 29.9% | viability, T/C (second compound 0.1 µM, first compound 10 µM) 26.8% | viability, T/C [5] 26.6% | viability, T/C (second compound 0.316 µM, first compound 0.1 µM) 28.8% | viability, T/C [6] 28.4% | viability, T/C (second compound 0.316 µM, first compound 1 µM) 24.9% | viability, T/C (second compound 0.316 µM, first compound 3.16 µM) 29.5% | viability, T/C (second compound 0.316 µM, first compound 10 µM) 20.5% | viability, T/C [7] 18.8% | viability, T/C (second compound 1 µM, first compound 0.1 µM) 27.1% | viability, T/C [8] 22.6% | viability, T/C (second compound 1 µM, first compound 1 µM) 21.1% | viability, T/C (second compound 1 µM, first compound 3.16 µM) 24.3% | viability, T/C (second compound 1 µM, first compound 10 µM) 19.6% | viability, T/C [9] 21.8% | viability, T/C (second compound 3.16 µM, first compound 0.1 µM) 21.3% | viability, T/C [10] 22.5% | viability, T/C (second compound 3.16 µM, first compound 1 µM) 19.1% | viability, T/C (second compound 3.16 µM, first compound 3.16 µM) 16.7% | viability, T/C (second compound 3.16 µM, first compound 10 µM) 16.9%

CC[C@@]1(O)C(=O)OCc2c1cc1n(c2=O)Cc2cc3c(CN(C)C)c(O)ccc3nc2-1 + Cc1cnc(CNC(=O)c2c(=O)c3ccc(N4CCCN(C)CC4)nc3n3c2sc2ccccc23)cn1
inactive: viability, T/C [13] 78.1% | viability, T/C [14] 61% | viability, T/C [15] 54.5% | viability, T/C [1] 33.9% | viability, T/C [16] 33.8% | viability, T/C [2] 28.5% | viability, T/C [17] 29.2% | viability, T/C [18] 37.9% | viability, T/C [19] 32.2% | viability, T/C [3] 31% | viability, T/C [20] 28% | viability, T/C [4] 23.1% | viability, T/C [21] 24.8% | viability, T/C [22] 26.8% | viability, T/C [23] 26.9% | viability, T/C [5] 25% | viability, T/C [24] 26% | viability, T/C [6] 20.5% | viability, T/C [25] 20.3% | viability, T/C [26] 24.9% | viability, T/C [27] 24.4% | viability, T/C [7] 22.9% | viability, T/C [28] 23.8% | viability, T/C [8] 22.6% | viability, T/C [29] 22.5% | viability, T/C [30] 21.7% | viability, T/C [31] 20.3% | viability, T/C [9] 19.2% | viability, T/C [32] 20% | viability, T/C [10] 16.1%
> 9.00: pIC50 (second compound 0.1 µM) | pIC50 (second compound 0.316 µM) | pIC50 (second compound 1 µM) | pIC50 (second compound 3.16 µM) | pIC50 (second compound 10 µM)
8.02: pIC50 (second compound 0.0316 µM)
active: viability, T/C [33] 0.08% | viability, T/C [34] 0.14% | viability, T/C [35] 0.19% | viability, T/C [11] 0.16% | viability, T/C [36] 0.22% | viability, T/C [12] 0.17%

CCc1c2c(nc3ccc(O)cc13)-c1cc3c(c(=O)n1C2)COC(=O)[C@]3(O)CC + Cc1cnc(CNC(=O)c2c(=O)c3ccc(N4CCCN(C)CC4)nc3n3c2sc2ccccc23)cn1
active: viability, T/C [16] 8.12% | viability, T/C [2] 3.77% | viability, T/C [20] 6.99% | viability, T/C [4] 2.92% | viability, T/C [24] 7.47% | viability, T/C [6] 2.52% | viability, T/C [28] 6.88% | viability, T/C [8] 0.52% | viability, T/C [9] 10.7% | viability, T/C [32] 3.99% | viability, T/C [10] 0.15% | viability, T/C [33] 0.09% | viability, T/C [34] 0.14% | viability, T/C [35] 0.17% | viability, T/C [11] 0.14% | viability, T/C [36] 0.16% | viability, T/C [12] 0.16%
> 9.00: pIC50 (second compound 0.0316 µM) | pIC50 (second compound 0.1 µM) | pIC50 (second compound 0.316 µM) | pIC50 (second compound 1 µM) | pIC50 (second compound 3.16 µM) | pIC50 (second compound 10 µM)
inactive: viability, T/C [13] 40.3% | viability, T/C [14] 25.9% | viability, T/C [15] 28.9% | viability, T/C [1] 14.1% | viability, T/C [17] 33.5% | viability, T/C [18] 29.6% | viability, T/C [19] 18.2% | viability, T/C [3] 15.5% | viability, T/C [21] 21.6% | viability, T/C [22] 27.2% | viability, T/C [23] 22% | viability, T/C [5] 14.4% | viability, T/C [25] 19.5% | viability, T/C [26] 25.2% | viability, T/C [27] 17.8% | viability, T/C [7] 13.5% | viability, T/C [29] 20.3% | viability, T/C [30] 17.8% | viability, T/C [31] 15.5%
